# Where a SMILES comes first, the peptide text is derived from it. [ ]: non-standard residue; d: D form. The star is where a group is joined. Dolaproine = CO[C@@H]([C@@H]1CCCN1)[C@@H](C)C(=O)O; Dil = CC[C@H](C)[C@H](NC)[C@@H](CC(=O)O)OC; NMe2Val = CC(C)[C@@H](C(=O)*)N(C)C; NH(3-hydroxypropyl) = OCCCN*
# Columns and labels:
# [1] = tested on: HL-60; experiment: Cell viability assay (Cell Titer-Glo); type: cell-based; conditions: for IC50: CD33 expressing cells, 72 h or 6 days incubation
# Experimental: Dose response curves were generated using SoftMax Pro software. IC50 values were determined from four-parameter curve fitting.
# CD33 expressing cells HL-60 were passed at a density of 5,000 cells per well and treated with PBRM-polymer-drug conjugate on the same day. After 72 h or 6 days incubation, the cells were analyzed using the same procedure described above.
# [2] = tested on: N87; experiment: Cell viability assay (Cell Titer-Glo); type: cell-based; conditions: 72 h incubation; AF-HPA as toxin equivalents
# Experimental: (§1) PBRM-polymer-drug conjugates were evaluated for their antiproliferation properties in tumor cell lines in vitro using Cell Titer-Glo (Promega Corp). Cells were plated in black walled 96-well plate and allowed to adhere overnight at 37° C. in a humidified atmosphere of 5% CO2. SKBR3, BT474, NCI-N87 cells (HER2 expressing cells), MCF7 cells (HER2 low expressing levels cells) and JIMT1 cells (HER2 medium expression level cells) were plated at a density of 5,000 cells per well. The next day the medium was replaced with 50 μL fresh medium and 50 μL of 2× stocks of PBRM-polymer-drug conjugate, drug polymer conjugate or drug were added to appropriate wells, mixed and incubated for 72 h. Cell Titer-Glo reagent was added to the wells at room temperature and the luminescent signal was measured after 10 min using a SpectraMax M5 plate reader (Molecular Devices). Dose response curves were generated using SoftMax Pro software. IC50 values were determined from four-parameter curve fitting.
# [3] = tested on: BT474; experiment: Cell viability assay (Cell Titer-Glo); type: cell-based, human; conditions: 72 h incubation; AF-HPA as toxin equivalents
# Experimental: as §1
# [4] = tested on: MCF7; experiment: Cell viability assay (Cell Titer-Glo); type: cell-based; conditions: 72 h incubation; HER2 low expressing cells; AF-HPA as toxin equivalents
# Experimental: as §1
# [5] = tested on: JIMT1; experiment: Cell viability assay (Cell Titer-Glo); type: cell-based; conditions: 72 h incubation; HER2 medium expression level cells; AF-HPA as toxin equivalents
# Experimental: as §1
# [6] = Mouse tissue distribution after administration of PBRM-polymer-drug conjugates
# Experimental: To determine the concentration of the free drug in the sample, the acidified sample was treated with acetonitrile. The free drug was extracted from the supernatant and analyzed by LC-MS/MS.
# At 48 hours post administration, the mice were sacrificed and the blood was collected by terminal cardiac.
# [7] = tested on: HL-60 cells; experiment: Tumor growth response, HL-60 xenograft; type: in vivo, mice
# Experimental: Female NCr nu/nu mice were inoculated subcutaneously with HL-60 cells (n=10 for each group). Test compounds or vehicle were dosed IV as a single dose on day 1. Tumor size was measured at the times indicated in FIGS. 1 to 6 using digital calipers. Tumor volume was calculated and was used to determine the delay in tumor growth. Mice were sacrificed when tumors reached a size of 800 to 1500 mm^3. Tumor volumes are reported as the mean±SEM (“standard error of mean”) for each group.
# Female NCr nu/nu mice were inoculated subcutaneously with HL-60 cells (n=10 for each group). Test compounds or vehicle were dosed IV as a single dose on day 1. Tumor size was measured at the times indicated in FIG. 3 using digital calipers. Tumor volume was calculated and was used to determine the delay in tumor growth. Mice were sacrificed when tumors reached a size of 2000 mm^3. Tumor volumes are reported as the mean±SEM for each group.
# [8] = tested on: NCI-N87 cells; experiment: Tumor growth response, NCI-N87 xenograft; type: in vivo, mice
# Experimental: (§2) Female CB-17 SCID mice were inoculated subcutaneously with BT474 tumor fragments (n=10 for each group) or JIMT-1 cells (n=10 for each group) or NCI-N87 cells (n=10 for each group). […] Test compounds or vehicle were dosed IV as a single dose on day 1. Tumor size was measured at the times indicated in FIGS. 1 to 6 using digital calipers. Tumor volume was calculated and was used to determine the delay in tumor growth. Mice were sacrificed when tumors reached a size of 800 to 1500 mm^3. Tumor volumes are reported as the mean±SEM (“standard error of mean”) for each group.
# [9] = tested on: BT474 tumor fragments; experiment: Tumor growth response, BT474 xenograft; type: in vivo, mice
# Experimental: as §2
# [10] = tested on: JIMT-1 cells; experiment: Tumor growth response, JIMT-1 xenograft; type: in vivo, mice
# Experimental: as §2
# [11] = target: hErbB2 (Homo sapiens, UniProt P04626); experiment: Ligand binding studies by BIAcore surface plasmon resonance (SPR); conditions: 25° C.; immobilized hErbB2; BioRad ProteOn XPR36
# Experimental: The kinetic binding of the PBRM-polymer-drug conjugate to an immobilized receptor is determined by BIAcore SPR. The binding constants for the PBRM in the PBRM-polymer-drug conjugate and PBRM alone can be determined using standard BIAcore procedures.
# The kinetic binding of the PBRM-polymer-drug conjugate to an immobilized receptor was determined by BIAcore SPR.
# [12] = tested on: SKBR3; experiment: Cell viability assay (Cell Titer-Glo); type: cell-based; conditions: 72 h incubation; AF-HPA as toxin equivalents
# Experimental: as §1
compound,measurement,setting,value
"CC[C@H](C)[C@@H]([C@@H](CC(=O)N1CCC[C@H]1[C@H](OC)[C@@H](C)C(=O)N[C@@H](Cc1ccccc1)C(=O)NCCCO)OC)N(C)C(=O)[C@@H](NC(=O)[C@H](C(C)C)N(C)C)C(C)C [AF-HPA, Auristatin F-hydroxypropylamide] (NMe2Val-V[Dil][Dolaproine]F-{NH(3-hydroxypropyl)})",IC50,[1],4.8 nM
same,IC50,[2],0.42 nM
same,IC50,[3],1.01 nM
same,IC50,[4],4.4 nM
same,IC50,[5],0.86 nM
same,metabolism of unconjugated AF-HPA in plasma (in words),[6]; in plasma,not converted to AF
same,metabolism of released unconjugated AF-HPA in tissue (in words),[6]; in tissue,further metabolized to AF
Lintuzumab-((EG2-MI (2%)-(10 kDa PHF-BA (30%)-(AF-HPA-Ala (9%)) [Example 8],antiproliferative activity compared to control conjugate (in words),[1]; CD33 expressing cell line HL-60,higher antiproliferative activity
same,IC50,[1],0.77 nM
same,"regressions, FIG. 3",[7]; 20 mg/kg single IV dose,100%
same,"tumor free survival on day 44, FIG. 3","[7]; 20 mg/kg single IV dose, day 44",70%
same,"tumor volume response (in words), FIG. 3","[7]; single IV dose day 1, 20 mg/kg",reduction of tumor volume
Rituximab-((EG2-MI (2%)-(10 kDa PHF-BA (28%)-(AF-HPA-Ala (9%)) [Example 16],"tumor growth response (in words), FIG. 6","[8]; single IV dose, Example 14 at […], Example 16 at 3 mg/kg",no effect on tumor growth
same,IC50,[2],5.23 nM
same,IC50,[3],3.04 nM
same,IC50,[4],27.9 nM
same,IC50,[5],1.88 nM
Rituximab-((EG2-MI (3%)-(10 kDa PHF-BA (30%)-(AF-HPA-Ala (8%)) [Example 9],IC50,[1],6.74 nM
Trastuzumab-((EG2-MI (1%))-(10 kDa PHF-GA (29%)-(AF-HPA-Ala (6%)) [Example 13],"regressions, FIG. 1",[9]; 5 mg/kg single IV dose,100%
same,"tumor free survival, FIG. 1",[9]; 5 mg/kg single IV dose,80%
same,"tumor volume response (in words), FIG. 1","[9]; single IV dose day 1, conjugates […] and 5 mg/kg, trastuzumab 10 mg/kg",reduction of tumor volume
Trastuzumab-((EG2-MI (2%)-(10 kDa PHF-BA (28%)-(AF-HPA-Ala (9%) [Example 14],IC50,[2],0.11 nM
same,IC50,[3],0.07 nM
same,"regressions, FIG. 4A",[10]; 2.0 mg/kg single IV dose,100%
same,"tumor free survival, FIG. 4A",[10]; 2.0 mg/kg single IV dose,100%
same,"tumor volume response (in words), FIG. 4A","[10]; single IV dose day 1, Example 14 at 2, 0.67 and 0.3 mg/kg, trastuzumab 20 mg/kg, Kadcyla 20 mg/kg",reduction of tumor volume
same,IC50,[4],28.9 nM
same,ka (association or affinity rate constant),[11],3.91 ± 0.3 × 10^5 M^−1s^−1
same,kd (dissociation rate constant),[11],2.56 ± 0.1 × 10^−5 s^−1
same,IC50,[5],0.13 nM
same,IC50,[12],0.02 nM
Trastuzumab-((EG2-MI (2%)-(10 kDa PHF-BA (28%)-(AF-HPA-Ala (9%) [Example 15],"complete regression out of 10 animals, FIG. 5",[8]; 1 mg/kg single IV dose,1
same,"partial regressions out of 10 animals, FIG. 5",[8]; 1 mg/kg single IV dose,7
same,"complete responses, FIG. 5",[8]; 3 mg/kg single IV dose,100
same,"tumor response (in words), FIG. 5",[8]; 3 mg/kg single IV dose,complete regression of tumor volume
same,IC50,[2],0.11 nM
same,IC50,[3],0.05 nM
same,IC50,[4],23.5 nM
same,IC50,[5],0.12 nM
same,IC50,[12],0.01 nM

# Reference: US9808528B2, “Protein-polymer-drug conjugates and methods of using same” (priority 2014, dated 2017)
